The target in series [1] is T1, A3 (homomeric CNGA3) channels (Homo sapiens, UniProt Q16281).
T1 sequence (Q16281 1-694): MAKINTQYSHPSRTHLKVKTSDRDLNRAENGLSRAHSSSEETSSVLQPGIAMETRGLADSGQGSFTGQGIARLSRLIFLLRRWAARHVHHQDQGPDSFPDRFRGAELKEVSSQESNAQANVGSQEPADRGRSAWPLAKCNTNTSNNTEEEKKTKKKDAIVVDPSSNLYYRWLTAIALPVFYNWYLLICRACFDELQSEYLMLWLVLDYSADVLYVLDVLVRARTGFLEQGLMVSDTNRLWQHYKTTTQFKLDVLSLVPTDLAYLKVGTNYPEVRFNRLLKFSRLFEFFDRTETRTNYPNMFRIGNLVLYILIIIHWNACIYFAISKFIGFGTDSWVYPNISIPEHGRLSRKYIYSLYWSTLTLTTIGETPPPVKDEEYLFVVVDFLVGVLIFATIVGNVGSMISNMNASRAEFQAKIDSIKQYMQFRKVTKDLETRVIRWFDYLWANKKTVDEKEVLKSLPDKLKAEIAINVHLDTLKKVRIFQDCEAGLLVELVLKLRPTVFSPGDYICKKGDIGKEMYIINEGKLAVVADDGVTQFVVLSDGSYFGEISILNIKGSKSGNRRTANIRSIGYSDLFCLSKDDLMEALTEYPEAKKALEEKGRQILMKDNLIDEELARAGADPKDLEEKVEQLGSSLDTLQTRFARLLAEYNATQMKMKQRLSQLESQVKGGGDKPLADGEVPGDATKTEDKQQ
Kind of series: inside-out patch clamp, macroscopic current dose-response, Hill fit. It counts as cell-based.

The target of series [2] is T2, A3+B3 (heteromeric CNGA3 + CNGB3) channels (Homo sapiens, UniProt Q16281+Q9NQW8).
T2 sequence (Q16281 1-694): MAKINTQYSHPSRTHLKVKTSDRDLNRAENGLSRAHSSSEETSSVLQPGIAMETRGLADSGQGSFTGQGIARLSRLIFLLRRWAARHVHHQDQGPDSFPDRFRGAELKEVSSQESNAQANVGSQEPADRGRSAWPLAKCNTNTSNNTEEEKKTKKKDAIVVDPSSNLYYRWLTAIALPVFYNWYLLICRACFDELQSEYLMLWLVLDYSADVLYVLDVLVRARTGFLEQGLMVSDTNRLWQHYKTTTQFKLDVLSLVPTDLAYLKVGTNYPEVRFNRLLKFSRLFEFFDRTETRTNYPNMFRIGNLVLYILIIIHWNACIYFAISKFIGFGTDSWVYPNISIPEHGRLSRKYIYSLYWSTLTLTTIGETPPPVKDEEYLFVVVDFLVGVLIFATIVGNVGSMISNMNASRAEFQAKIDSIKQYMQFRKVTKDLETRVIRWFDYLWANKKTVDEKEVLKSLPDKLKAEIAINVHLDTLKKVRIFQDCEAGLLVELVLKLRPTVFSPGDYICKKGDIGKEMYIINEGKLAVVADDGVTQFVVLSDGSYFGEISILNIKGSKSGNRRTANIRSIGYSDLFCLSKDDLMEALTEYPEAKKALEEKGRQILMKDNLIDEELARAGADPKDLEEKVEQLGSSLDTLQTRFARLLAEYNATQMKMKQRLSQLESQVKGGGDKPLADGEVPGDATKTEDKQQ
T2 sequence (Q9NQW8 1-809): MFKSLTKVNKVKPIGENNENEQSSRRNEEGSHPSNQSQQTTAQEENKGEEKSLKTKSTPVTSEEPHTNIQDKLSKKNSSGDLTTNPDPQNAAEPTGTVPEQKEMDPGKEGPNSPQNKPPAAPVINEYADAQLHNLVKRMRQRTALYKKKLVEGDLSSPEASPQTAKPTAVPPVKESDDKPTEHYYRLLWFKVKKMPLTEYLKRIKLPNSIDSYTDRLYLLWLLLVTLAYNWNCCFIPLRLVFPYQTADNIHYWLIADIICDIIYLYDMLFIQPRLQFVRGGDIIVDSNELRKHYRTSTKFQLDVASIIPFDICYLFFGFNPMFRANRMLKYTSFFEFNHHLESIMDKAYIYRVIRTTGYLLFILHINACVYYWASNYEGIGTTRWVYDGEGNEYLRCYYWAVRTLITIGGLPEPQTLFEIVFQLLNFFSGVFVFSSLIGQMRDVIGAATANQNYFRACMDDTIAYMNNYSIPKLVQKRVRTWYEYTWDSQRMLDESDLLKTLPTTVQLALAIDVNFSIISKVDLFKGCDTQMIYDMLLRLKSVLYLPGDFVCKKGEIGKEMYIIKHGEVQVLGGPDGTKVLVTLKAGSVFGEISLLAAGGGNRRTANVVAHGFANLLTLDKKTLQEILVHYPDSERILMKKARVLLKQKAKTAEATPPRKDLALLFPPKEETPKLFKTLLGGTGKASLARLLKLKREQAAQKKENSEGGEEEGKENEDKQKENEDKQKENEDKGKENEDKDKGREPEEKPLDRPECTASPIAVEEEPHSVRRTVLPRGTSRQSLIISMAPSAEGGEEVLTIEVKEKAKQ
The description is as above. It counts as cell-based.

A short description of series [3]: anti-FLAG immunoblot, intact oocytes exposed to MMPs 1 h. Conditions: glycan lost; control: glycosylated form of A3wt subunits.

Broadly, the EC50 is the concentration giving half of the maximal effect. As for `Nc1nc2c(ncn2[C@@H]2O[C@@H]3COP(=O)(O)O[C@H]3[C@H]2O)c(=O)[nH]1` [cGMP], the EC50 in series [1] came out at 5.6 ± 1 µM; in series [2], 15.2 ± 1.1 µM.

B1: CNGA3: A3N339Q (protein)
parent chain: MAKINTQYSHPSRTHLKVKTSDRDLNRAENGLSRAHSSSEETSSVLQPGIAMETRGLADSGQGSFTGQGIARLSRLIFLLRRWAARHVHHQDQGPDSFPDRFRGAELKEVSSQESNAQANVGSQEPADRGRSAWPLAKCNTNTSNNTEEEKKTKKKDAIVVDPSSNLYYRWLTAIALPVFYNWYLLICRACFDELQSEYLMLWLVLDYSADVLYVLDVLVRARTGFLEQGLMVSDTNRLWQHYKTTTQFKLDVLSLVPTDLAYLKVGTNYPEVRFNRLLKFSRLFEFFDRTETRTNYPNMFRIGNLVLYILIIIHWNACIYFAISKFIGFGTDSWVYPNISIPEHGRLSRKYIYSLYWSTLTLTTIGETPPPVKDEEYLFVVVDFLVGVLIFATIVGNVGSMISNMNASRAEFQAKIDSIKQYMQFRKVTKDLETRVIRWFDYLWANKKTVDEKEVLKSLPDKLKAEIAINVHLDTLKKVRIFQDCEAGLLVELVLKLRPTVFSPGDYICKKGDIGKEMYIINEGKLAVVADDGVTQFVVLSDGSYFGEISILNIKGSKSGNRRTANIRSIGYSDLFCLSKDDLMEALTEYPEAKKALEEKGRQILMKDNLIDEELARAGADPKDLEEKVEQLGSSLDTLQTRFARLLAEYNATQMKMKQRLSQLESQVKGGGDKPLADGEVPGDATKTEDKQQ
For the molecule B1, in series [3], the “other: proteolytic processing” value is reported as “increases”.

(Values after PMC4657727 (Biochemistry, 2013).)
